Four compounds from patent US7897641B2, “Composition for the prevention and/or treatment of the cytotoxic effects induced by the use of immunosuppressive agents” (Sigma-Tau Industrie Farmaceutiche Riunite S.p.A., priority 2000, dated 2011) can be followed below.

Like-named read-outs stand apart in the source and are kept apart here.

Data set [1] relates to isolated, perfused rat kidneys. The data set can be described thus: Glomerular and tubular morphometric abnormalities induced by cyclosporin-A in perfused rat kidney. Conditions: for Morphometric indices, tubular ID/ED / Morphometric indices, glomerular CD/BD: kidneys perfused with cyclosporin-A 2 mg/L, alone or with treatment 5 mg/L; for Morphometric indices, tubular ID/ED: control 0.36 ± 0.03; for Morphometric indices, glomerular CD/BD: control 0.93 ± 0.09. The source says: (§1) In these tests a group of rats were used whose kidneys were isolated, after bilateral nephrectomy, and perfused according to the technique described by Schure and Maack.
(§2) The kidneys thus isolated were perfused by means of a pulsating pump both with a solution containing cyclosporin A or tacrolimus and with a solution containing propionyl L-carnitine or glycine or the two components in combination.
The parameters observed on the kidneys thus perfused were the capillary diameters (CD) and the Bowman's capsule diameters (BD) and equally the external and internal diameter (ID) and also the diameter at the level of the basal membrane (ED) of at least 20 proximal tubules.

Data set [2] has as its system isolated, perfused rat kidneys. The data set can be described thus: Reduction of renal ATP induced by cyclosporin-A. The settings on record: for ATP: kidneys perfused with cyclosporin-A, alone or with treatment, control 6.70 ± 0.51. How it is done: as §1, §2
(§3) Lipid peroxidation was measured on samples of renal cortex as described by Longoni (Longoni B., Int. J. Tissue React., 21.7.1997-Lowry O. H., J. Biol. Bioch., 193:265, 1951) and ATP concentrations were determined according to the method described by Sumpio (Sumpio B. E., Am. J. Physiol., 247, PT2, 1047, 1984).

The test system of data set [3] is isolated, perfused rat kidneys. The data set can be described thus: Renal lipoperoxidation induced by cyclosporin-A (MDA + 4-HDA assay). The settings on record: for MDA + 4-HDA: renal cortex, kidneys perfused with cyclosporin-A, alone or with treatment, control 2.1 ± 0.91. As for the experimental part: as §1, §2, §3
In data set [4] the test system is isolated, perfused rat kidneys. The data set can be described thus: Histamine and endothelin-1 release induced by cyclosporin-A or tacrolimus in isolated, perfused rat kidneys. The settings on record: for % inhibition of release, endothelin-1 / % inhibition of release, histamine: treatment 5 mg/L each, after 1 min perfusion.
Excerpt: (§4) Using the isolated rat kidney according to the technique described by Maack (Maack P., Kidney Int., 30:142, 1986) and Shure (Shure K. H., Delugers Arch., 35:4, 1975) and perfusing it with a solution containing cyclosporin-A, it is possible to detect the toxic reactions this substance induces at the renal level relating both to the renal cytomorphology, particularly at the tubular level, and to arteriolar and […] capillary vasoconstriction and the release of enzymes such as alanine aminopeptidase (AAP) and N-acetylglucosaminidase (NAG), the release of which is regarded as a sign of cell damage, as is the release of vasoactive substances such as histamine and endothelin-1.
as §1, §2
(§5) A […] method was used to measure both AAP and NAG on the renal venous flow. Histamine and endothelin-1 were measured with a colorimetric method or with RIA.

For the next data set, the system named is perfused rat kidneys. The data set can be described thus: Renal hypertension induced by cyclosporin-A or tacrolimus in perfused rat kidneys. Conditions: treatment 5 mg/L each; for inhibition at 5 µg/mL: Rattus norvegicus.
Excerpt: as §4, §1, §2
Arterial pressure on the perfused kidney was measured by means of a manometer connected up to the renal artery.

For data set [5], the system named is isolated, perfused rat kidneys. The data set can be described thus: Renal tubular damage evaluated by release of alanine aminopeptidase (AAP) and N-acetylglucosaminidase (NAG) in isolated, perfused rat kidneys. The settings on record: treatment 5 mg/L each, after 5 min perfusion.
Excerpt: as §4, §1, §2, §5

Data set [6] deals with isolated and perfused rat kidney. The data set is described as follows: Tests of cyclosporin-A toxicity in isolated and perfused rat kidney, overall assessment. Conditions: in words.
Excerpt: as §4, §1, §2

Data set [7] deals with Sprague Dawley rats. The data set can be described thus: Toxicology tests, acute i.p./oral and prolonged oral administration.
Data set [8] concerns rats intoxicated with CCL4. The data set is described as follows: Protection against liver damage in rats intoxicated with CCl4. The settings on record: treatment 300 mg/kg i.p. half an hour before CCl4; for Alanine aminotranferase activity (ALT): blood 24 h after CCl4 1 mL/kg of 20% solution, controls 12.5 ± 1.7; for Triglycerides: liver 24 h after CCl4, controls 6.5 ± 0.7. It counts as in vivo, rat. How it is done: CCl4 was administered at the dose of 1 mL/kg of a 20% solution in olive oil according to the technique described by Bernacchi (Bernacchi A. G., Brit. J. Exp. Pathol., 61:505, 1980).
Twenty-four hours after administration of CCl4, alanine aminotransferase was assayed as an indicator of enzymatic liver damage in blood from the animals thus treated, according to the colorimetric method described by Reitman (Reitman S., Am. J. Clin. Pathol., 28:56, […]), whereas from the livers taken from the same animals triglycerides were extracted with methanol and chloroform and assayed according to the method described by Kleir (Kleir, J. Biochem. Clin. Bohenescov., 9:243, 1999). The livers were then fixed with Carnon fixative and, after embedding in paraplast, were stained with haematoxylin and eosin.

The test system of data set [9] is Sprague Dawley rats. Conditions: rat, in vivo, 500 mg/kg.
The mark [10] stands for this setting: induced by cyclosporin-A 2 mg/L.

For cyclosporin-A [reference compound], in data set [1], the “Morphometric indices, tubular ID/ED” value is recorded as 0.75 ± 0.08 and the “Morphometric indices, glomerular CD/BD” value is 0.78 ± 0.02. Moreover, the ATP in [2] is reported as 4.51 ± 0.41 nM/g tissue. Further, the “MDA + 4-HDA” value in data set [3] is 6.5 ± 0.52 nmol/mg protein.

As for `CCC(=O)O[C@H](CC(=O)[O-])C[N+](C)(C)C` [Propionyl L-carnitine, propionyl L-carnitine], the “Morphometric indices, tubular ID/ED” value in data set [1] turned out to be 0.40 ± 0.06. Also, the “Morphometric indices, glomerular CD/BD” value in data set [1] amounted to 0.86 ± 0.7. Also, the results for the “% inhibition of release, endothelin-1” value in data set [4] (setting [10]) and in data set [4] (induced by tacrolimus 400 μg/L) were 41.2 ± 3.8% and 34.7 ± 2.7%, respectively. Also, the results for the “% inhibition of release, histamine” value in [4] (setting [10]) and in [4] (induced by tacrolimus 400 μg/L) were 39.5 ± 4.1% and 41.5 ± 3.9%, respectively. The “% inhibition of hypertensive effect after 5 min” value is listed as 18.2 ± 1.5% in the data set with perfused rat kidneys (hypertension induced by cyclosporin-A 2 mg/L, 5 min) and 22.5 ± 2.3% in the data set on perfused rat kidneys (hypertension induced by tacrolimus 400 μg/L, 5 min). Besides, the “% inhibition of hypertensive effect after 20 min” value in the data set on perfused rat kidneys (hypertension induced by cyclosporin-A 2 mg/L, 20 min) turned out to be 28.4 ± 2.1%; in the data set with perfused rat kidneys (hypertension induced by tacrolimus 400 μg/L, 20 min), 30.7 ± 2.9%. Also, the ATP in [2] was 6.05 ± 0.61 nM/g tissue. Moreover, the “% inhibition of release, AAP” value in [5] (setting [10]) came out at 32.8 ± 3.1%; in [5] (induced by tacrolimus 400 μg/L), 35.1 ± 2.9%. In addition, the “% inhibition of release, NAG” value in data set [5] (setting [10]) came out at 30.5 ± 2.6%; in data set [5] (induced by tacrolimus 400 μg/L) it was 30.8 ± 2.5%. Besides, the “protection of the kidney against morphological/vascular and cellular biochemical damage induced by cyclosporin-A or tacrolimus” value in data set [6] is listed as “effective in protecting the kidney”. Also, the “MDA + 4-HDA” value in data set [3] is on record as 4.2 ± 0.39 nmol/mg protein. Besides, the “mortality or other sign of toxic effects” value with Sprague Dawley rats [7] (intraperitoneal, 0.5 g/kg each) was “without any mortality being observed”; in the data set on Sprague Dawley rats [7] (oral, 1 g/kg each), “without any mortality being observed”. In addition, in the data set on Sprague Dawley rats [7] (oral 500 mg/kg each for 20 days consecutively, weight gain and blood chemistry without toxic abnormalities), the “tolerability of prolonged oral administration” value is given as “well tolerated”. Further, the “Alanine aminotranferase activity (ALT)” value in data set [8] is 75.8 ± 5.5 U/L. The Triglycerides in data set [8] is 18.8 ± 1.8 mg/g.

In the case of `ClC(Cl)(Cl)Cl` [CCl4, carbon tetrachloride, reference compound], in data set [8], the “Alanine aminotranferase activity (ALT)” value was 105.4 ± 3.8 U/L and the Triglycerides came to 26.5 ± 0.11 mg/g.

In general, inhibition refers to the share of the control response that was lost under treatment. Take `NCC(=O)O` [Glycine, glycine]: in data set [1] (in words), the “action on the morphological damage induced by cyclosporin A” value was “not significantly detectable”. Moreover, the “Morphometric indices, tubular ID/ED” value in [1] came out at 0.66 ± 0.5. Also, the “Morphometric indices, glomerular CD/BD” value in data set [1] was 0.80 ± 0.5. In [4] (cyclosporin A, in words), the “action on the release of vasoactive substances such as histamine and endothelin” value was “not significantly detectable”. Also, the figures for the “% inhibition of release, endothelin-1” value in data set [4] (setting [10]) and in data set [4] (induced by tacrolimus 400 μg/L) were 8.8 ± 0.9% and 6.5 ± 0.7%, respectively. Further, the “% inhibition of release, histamine” value in data set [4] (setting [10]) came to 10.4 ± 1.1%; in [4] (induced by tacrolimus 400 μg/L), 7.5 ± 0.8%. Moreover, the inhibition at 5 µg/mL in the data set with perfused rat kidneys (5 min, hypertension induced by cyclosporin-A 2 mg/L, 5 min, read-out: % inhibition of hypertensive effect after 5 min) is 6.3 ± 0.9%; with perfused rat kidneys (5 min, hypertension induced by tacrolimus 400 μg/L, 5 min, read-out: % inhibition of hypertensive effect after 5 min) it was 4.8 ± 7.1%; with perfused rat kidneys (20 min, hypertension induced by cyclosporin-A 2 mg/L, 20 min, read-out: % inhibition of hypertensive effect after 20 min) it was 6.8 ± 0.3%; in the data set on perfused rat kidneys (20 min, hypertension induced by tacrolimus 400 μg/L, 20 min, read-out: % inhibition of hypertensive effect after 20 min), 7.4 ± 0.9%. In data set [2] (cyclosporin A, in words), the “action on the reduction in intracellular ATP” value was “not significantly detectable”. Besides, the ATP in data set [2] is on record as 4.56 ± 0.49 nM/g tissue. For the same compound, the entries for the “% inhibition of release, AAP” value in [5] (setting [10]) and in data set [5] (induced by tacrolimus 400 μg/L) were 14.2 ± 0.9% and 18.5 ± 1.1%, respectively. Besides, the “% inhibition of release, NAG” value in [5] (setting [10]) was determined as 16.5 ± 0.6%; in data set [5] (induced by tacrolimus 400 μg/L) it was 17.2 ± 0.9%. Besides, the “protection of the kidney against morphological/vascular and cellular biochemical damage induced by cyclosporin-A or tacrolimus” value in data set [6] is recorded as “much less effective”. For the same compound, in data set [3] (in words), the “effect on the lipid peroxidation activity induced by cyclosporin-A” value was “detectable protective effect”. The “MDA + 4-HDA” value in [3] amounted to 4.8 ± 0.41 nmol/mg protein. Further, the “tolerability of prolonged oral administration” value with Sprague Dawley rats [9] is “well tolerated”. Also, the “mortality or other sign of toxic effects” value is on record as “without any mortality being observed” in the data set with Sprague Dawley rats [7] (intraperitoneal, 0.5 g/kg each) and “without any mortality being observed” in the data set with Sprague Dawley rats [7] (oral, 1 g/kg each). Besides, the “Alanine aminotranferase activity (ALT)” value in [8] is listed as 90.2 ± 8.6 U/L. Moreover, the Triglycerides in data set [8] came to 22.2 ± 2.1 mg/g.
